{
  "source": "patent US20220296526A1",
  "about": "“CANNABINOID COMPOSITIONS, METHODS OF MAKING SAME AND USES THEREOF” (HEXO OPERATIONS INC., priority 2019, published 2022)",
  "assay": "DLS particle size tracking around spray drying (nanoemulsion, solubilized carrier, pre-spray dried mixture, re-hydrated powder)",
  "type": "physicochemical",
  "conditions": "solubilized carrier alone, 0.4 g/ml",
  "experimental": "Particle size of all nanoemulsions was measured in water solution at 25° C. using dynamic light scattering (DLS). All samples in the present disclosure have been analyzed at a dilution of 1/20 in purified water using a LiteSizer™ (Anton Paar GmbH, Germany).\nThe resulting spray dried emulsion powder was analyzed by performing a rehydration and then performing a visual inspection for turbidity and DLS analysis for particle size tracking of the generated emulsion (see Table 9).",
  "note": "Several values for one entry are separate records, joined by “and”; a condition that tells them apart may be missing. Equal values may be shown once.",
  "data": [
    {"smiles": "OC[C@@H](O)[C@@H](O)[C@H](O)[C@H](O)CO", "note": "[Pearlitol (Mannitol), Mannitol]", "values": [
      {"measurement": "Particle Size Carrier", "result": "287 nm, poor signal and 225 nm, poor signal"}
    ]}
  ]
}
